Data published in patent publication US7074789B2, “Kinase inhibitors” (Amgen Inc., priority 1999, dated 2006).
Read-outs that look alike come from different tables or passages of the source.

What was measured:
Type in all cases: biochemical
Lck = molecular target: T1, Lck (Homo sapiens, UniProt P06239); experiment: Kinase inhibition assay (33P transfer), Lck; details: read-out: Lck-1
T1 construct: Kinases are expressed as either kinase domains or full length constructs; made in house
In short: (§1)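 Kinase domains or full-length kinases, GST- or His-tagged and expressed in E. coli or baculovirus/High Five cells, transferred 33PO4 from ATP onto plate-bound poly(Glu,Tyr) 4:1 or poly(Arg,Ser) 3:1. After incubation, plates were washed with 0.5% phosphoric acid and counted by liquid scintillation.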

Lyn = molecular target: T2, Lyn (Homo sapiens, UniProt P07948); experiment: Kinase inhibition assay (33P transfer), Lyn; details: Table 6, Lyn-1 kinase inhibition class
T2 construct: Kinases are expressed as either kinase domains or full length constructs; made in house
In short: (§2)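 Steps: coat wells with poly(Glu,Tyr) 4:1 or poly(Arg,Ser) 3:1; add purified kinase, [33P]ATP and inhibitor; incubate; wash with 0.5% phosphoric acid; add liquid scintillant; count. IC50 corresponds to half-maximal reduction of bound 33P.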

Src = molecular target: T3, Src (Homo sapiens, UniProt P12931); experiment: Kinase inhibition assay (33P transfer), Src; details: Table 6, Src-1 kinase inhibition class
T3 construct: Kinases are expressed as either kinase domains or full length constructs; made in house
In short: as §2

Fyn = molecular target: T4, Fyn (Homo sapiens, UniProt P06241); experiment: Kinase inhibition assay (33P transfer), Fyn; details: read-out: Fyn-1
T4 construct: Kinases are expressed as either kinase domains or full length constructs; made in house
In short: as §2

Zap-70 = molecular target: T5, Zap-70 (Homo sapiens, UniProt P43403); experiment: Kinase inhibition assay (33P transfer), Zap-70; details: read-out: Zap-1
T5 construct: Kinases are expressed as either kinase domains or full length constructs; made in house
T5 sequence (P43403 1-619): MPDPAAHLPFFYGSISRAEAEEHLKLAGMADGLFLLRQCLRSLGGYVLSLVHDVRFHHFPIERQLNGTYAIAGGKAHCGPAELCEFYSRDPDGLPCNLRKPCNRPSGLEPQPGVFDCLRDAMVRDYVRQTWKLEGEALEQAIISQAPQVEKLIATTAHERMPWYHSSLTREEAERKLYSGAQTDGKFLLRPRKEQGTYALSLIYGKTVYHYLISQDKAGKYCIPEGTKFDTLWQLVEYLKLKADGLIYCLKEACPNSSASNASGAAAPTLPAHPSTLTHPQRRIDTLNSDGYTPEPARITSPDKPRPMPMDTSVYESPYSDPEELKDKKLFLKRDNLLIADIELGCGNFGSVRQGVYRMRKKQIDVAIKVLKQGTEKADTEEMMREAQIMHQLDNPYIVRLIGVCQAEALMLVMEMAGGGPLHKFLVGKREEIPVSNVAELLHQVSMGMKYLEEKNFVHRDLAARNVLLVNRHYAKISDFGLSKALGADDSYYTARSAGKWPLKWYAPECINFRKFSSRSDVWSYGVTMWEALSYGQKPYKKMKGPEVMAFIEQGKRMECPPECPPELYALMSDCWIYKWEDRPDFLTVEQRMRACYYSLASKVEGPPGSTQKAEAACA
In short: as §1

Itk = molecular target: T6, Itk (Homo sapiens, UniProt Q08881); experiment: Kinase inhibition assay (33P transfer), Itk; details: read-out: Itk-1
T6 construct: Kinases are expressed as either kinase domains or full length constructs; made in house
T6 sequence (Q08881 1-620): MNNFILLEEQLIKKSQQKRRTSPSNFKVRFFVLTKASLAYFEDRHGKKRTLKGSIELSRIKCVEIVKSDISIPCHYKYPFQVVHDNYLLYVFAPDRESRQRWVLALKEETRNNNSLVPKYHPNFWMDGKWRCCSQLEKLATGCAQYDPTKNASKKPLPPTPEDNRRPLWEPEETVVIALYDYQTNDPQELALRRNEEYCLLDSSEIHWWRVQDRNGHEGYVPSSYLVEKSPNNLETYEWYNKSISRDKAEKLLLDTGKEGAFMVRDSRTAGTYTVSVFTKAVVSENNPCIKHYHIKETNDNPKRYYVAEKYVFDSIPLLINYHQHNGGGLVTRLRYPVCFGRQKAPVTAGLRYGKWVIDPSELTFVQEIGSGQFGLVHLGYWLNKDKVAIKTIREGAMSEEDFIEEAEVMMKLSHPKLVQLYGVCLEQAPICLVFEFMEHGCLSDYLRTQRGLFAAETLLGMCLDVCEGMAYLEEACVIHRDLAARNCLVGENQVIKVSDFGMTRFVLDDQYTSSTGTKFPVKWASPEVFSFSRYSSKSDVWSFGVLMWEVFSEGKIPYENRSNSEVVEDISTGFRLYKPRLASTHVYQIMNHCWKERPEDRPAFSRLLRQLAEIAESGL
In short: as §2

EGFR = molecular target: T7, EGFR (Homo sapiens, UniProt P00533); experiment: Kinase inhibition assay (33P transfer), EGFR; details: Table 2, kinase inhibition class; read-out: EGFR-1
T7 construct: Kinases are expressed as either kinase domains or full length constructs; made in house
In short: as §2

ErbB2 = molecular target: T8, ErbB2 (Homo sapiens, UniProt P04626); experiment: Kinase inhibition assay (33P transfer), ErbB2; details: read-out: ErbB2-2
T8 construct: Kinases are expressed as either kinase domains or full length constructs; made in house
In short: as §2

Kdr = molecular target: T9, Kdr (Homo sapiens, UniProt P35968); experiment: Kinase inhibition assay (33P transfer), Kdr; details: read-out: KDR-1
T9 construct: Kinases are expressed as either kinase domains or full length constructs; made in house
In short: as §1

Flt-1 = molecular target: T10, Flt-1 (Homo sapiens, UniProt P17948); experiment: Kinase inhibition assay (33P transfer), Flt-1
T10 construct: Kinases are expressed as either kinase domains or full length constructs; made in house
In short: as §2

c-Met = molecular target: T11, c-Met (Homo sapiens, UniProt P08581); experiment: Kinase inhibition assay (33P transfer), c-Met; details: Table 2, kinase inhibition class; read-out: Met-1
T11 construct: Kinases are expressed as either kinase domains or full length constructs; made in house
In short: as §2

AKT = molecular target: T12, AKT (Homo sapiens, UniProt Q9Y243); experiment: Kinase inhibition assay (33P transfer), AKT; details: Table 2, kinase inhibition class; read-out: AKT3-1
T12 construct: Kinases are expressed as either kinase domains or full length constructs; made in house
In short: as §1

IGFR-1 = molecular target: T13, IGFR-1 (Homo sapiens, UniProt P08069); experiment: Kinase inhibition assay, IGFR-1 (Table 2); details: Table 2, kinase inhibition class
T13 construct: Kinases are expressed as either kinase domains or full length constructs; made in house

PDGFRB [1] = molecular target: T14, PDGFRB (Homo sapiens, UniProt P09619); experiment: Kinase inhibition assay (33P transfer), PDGFRB; details: read-out: PDGFRB-1
T14 construct: Kinases are expressed as either kinase domains or full length constructs; made in house

Hck-1 = molecular target: T15, Hck-1 (Homo sapiens, UniProt P08631); experiment: Kinase inhibition assay (33P transfer), Hck; details: Table 6, Hck-1 kinase inhibition class
T15 construct: Kinases are expressed as either kinase domains or full length constructs; made in house

ErbB4 = molecular target: T16, ErbB4 (Homo sapiens, UniProt Q15303); experiment: Kinase inhibition assay (33P transfer), ErbB4; details: read-out: ErbB4-1
T16 construct: Kinases are expressed as either kinase domains or full length constructs; made in house

Ret-1 = molecular target: T17, Ret-1 (Homo sapiens, UniProt P07949); experiment: Kinase inhibition assay (33P transfer), Ret; details: Table 6, Ret-1 kinase inhibition class
T17 construct: Kinases are expressed as either kinase domains or full length constructs; made in house

FGFR1 = molecular target: T18, FGFR1 (Homo sapiens, UniProt P11362); experiment: Kinase inhibition assay (33P transfer), FGFR1; details: read-out: FGFR1-1
T18 construct: Kinases are expressed as either kinase domains or full length constructs; made in house

PDGFRB [2] = molecular target: T14, PDGFRB; experiment: Kinase inhibition assay (33P transfer), PDGFRB; details: read-out: PDGFRB-1; remark: listed apart in the source

T14 sequence (P09619 33-1106, species assumed): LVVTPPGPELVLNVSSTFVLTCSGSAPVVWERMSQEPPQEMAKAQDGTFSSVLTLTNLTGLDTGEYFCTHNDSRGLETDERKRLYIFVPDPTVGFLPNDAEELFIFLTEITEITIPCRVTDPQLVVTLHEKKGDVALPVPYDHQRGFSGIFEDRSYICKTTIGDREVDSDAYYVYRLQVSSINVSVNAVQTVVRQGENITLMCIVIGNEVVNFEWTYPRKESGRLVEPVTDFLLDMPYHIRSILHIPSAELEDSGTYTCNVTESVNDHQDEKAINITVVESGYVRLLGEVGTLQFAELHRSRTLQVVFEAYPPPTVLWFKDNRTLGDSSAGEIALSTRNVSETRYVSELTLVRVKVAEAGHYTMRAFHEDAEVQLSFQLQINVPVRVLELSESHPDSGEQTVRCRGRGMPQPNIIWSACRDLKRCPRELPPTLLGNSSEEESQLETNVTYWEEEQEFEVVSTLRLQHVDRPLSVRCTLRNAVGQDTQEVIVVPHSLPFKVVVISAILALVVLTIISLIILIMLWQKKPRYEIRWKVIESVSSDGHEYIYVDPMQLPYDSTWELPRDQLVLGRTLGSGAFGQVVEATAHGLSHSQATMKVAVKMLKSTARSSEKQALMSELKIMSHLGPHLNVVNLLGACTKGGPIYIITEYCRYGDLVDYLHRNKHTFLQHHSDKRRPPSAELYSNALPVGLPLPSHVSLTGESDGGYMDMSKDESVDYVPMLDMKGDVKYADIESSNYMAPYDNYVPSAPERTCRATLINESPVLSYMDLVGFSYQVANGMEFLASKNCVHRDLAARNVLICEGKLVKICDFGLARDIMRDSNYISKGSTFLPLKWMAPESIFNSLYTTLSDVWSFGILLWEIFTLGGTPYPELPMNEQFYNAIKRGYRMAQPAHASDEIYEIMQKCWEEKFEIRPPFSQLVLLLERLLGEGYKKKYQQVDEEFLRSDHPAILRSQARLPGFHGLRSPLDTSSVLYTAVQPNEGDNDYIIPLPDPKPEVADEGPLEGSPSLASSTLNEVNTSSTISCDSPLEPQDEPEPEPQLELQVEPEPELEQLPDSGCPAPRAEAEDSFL
T10 sequence (P17948 27-1338, species assumed): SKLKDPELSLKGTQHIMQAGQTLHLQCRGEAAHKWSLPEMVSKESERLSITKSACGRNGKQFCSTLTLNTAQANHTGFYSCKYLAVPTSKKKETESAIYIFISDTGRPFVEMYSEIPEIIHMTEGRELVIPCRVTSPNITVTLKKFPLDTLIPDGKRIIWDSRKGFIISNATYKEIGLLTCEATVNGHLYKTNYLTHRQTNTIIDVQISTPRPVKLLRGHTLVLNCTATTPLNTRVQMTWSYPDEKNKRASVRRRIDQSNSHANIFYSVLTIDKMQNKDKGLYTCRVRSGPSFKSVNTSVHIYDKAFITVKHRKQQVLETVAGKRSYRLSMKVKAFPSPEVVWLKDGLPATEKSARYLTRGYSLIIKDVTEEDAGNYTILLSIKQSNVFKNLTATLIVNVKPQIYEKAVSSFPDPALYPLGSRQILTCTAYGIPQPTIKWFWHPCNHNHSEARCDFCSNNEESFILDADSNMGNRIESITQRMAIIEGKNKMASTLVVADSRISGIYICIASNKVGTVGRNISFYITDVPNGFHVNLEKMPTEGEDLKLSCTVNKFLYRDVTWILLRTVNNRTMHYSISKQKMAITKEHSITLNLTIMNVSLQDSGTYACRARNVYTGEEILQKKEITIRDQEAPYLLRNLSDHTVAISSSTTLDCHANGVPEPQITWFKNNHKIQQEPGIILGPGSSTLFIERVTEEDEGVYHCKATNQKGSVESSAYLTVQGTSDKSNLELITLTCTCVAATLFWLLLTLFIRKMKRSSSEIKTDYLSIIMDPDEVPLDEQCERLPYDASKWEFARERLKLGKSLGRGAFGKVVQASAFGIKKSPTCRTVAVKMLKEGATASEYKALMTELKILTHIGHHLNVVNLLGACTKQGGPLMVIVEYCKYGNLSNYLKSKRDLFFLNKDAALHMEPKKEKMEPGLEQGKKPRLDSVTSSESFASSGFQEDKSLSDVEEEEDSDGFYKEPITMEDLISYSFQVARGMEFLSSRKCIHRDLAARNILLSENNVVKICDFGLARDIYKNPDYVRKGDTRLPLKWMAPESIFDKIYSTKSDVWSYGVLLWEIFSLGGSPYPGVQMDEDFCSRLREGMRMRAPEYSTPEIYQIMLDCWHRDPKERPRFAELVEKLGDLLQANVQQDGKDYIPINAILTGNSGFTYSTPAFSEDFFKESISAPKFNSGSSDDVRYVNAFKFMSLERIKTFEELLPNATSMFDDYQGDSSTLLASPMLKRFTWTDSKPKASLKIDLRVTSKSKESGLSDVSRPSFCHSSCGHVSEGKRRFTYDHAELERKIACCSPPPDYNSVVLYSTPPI
T18 sequence (P11362 22-822, species assumed): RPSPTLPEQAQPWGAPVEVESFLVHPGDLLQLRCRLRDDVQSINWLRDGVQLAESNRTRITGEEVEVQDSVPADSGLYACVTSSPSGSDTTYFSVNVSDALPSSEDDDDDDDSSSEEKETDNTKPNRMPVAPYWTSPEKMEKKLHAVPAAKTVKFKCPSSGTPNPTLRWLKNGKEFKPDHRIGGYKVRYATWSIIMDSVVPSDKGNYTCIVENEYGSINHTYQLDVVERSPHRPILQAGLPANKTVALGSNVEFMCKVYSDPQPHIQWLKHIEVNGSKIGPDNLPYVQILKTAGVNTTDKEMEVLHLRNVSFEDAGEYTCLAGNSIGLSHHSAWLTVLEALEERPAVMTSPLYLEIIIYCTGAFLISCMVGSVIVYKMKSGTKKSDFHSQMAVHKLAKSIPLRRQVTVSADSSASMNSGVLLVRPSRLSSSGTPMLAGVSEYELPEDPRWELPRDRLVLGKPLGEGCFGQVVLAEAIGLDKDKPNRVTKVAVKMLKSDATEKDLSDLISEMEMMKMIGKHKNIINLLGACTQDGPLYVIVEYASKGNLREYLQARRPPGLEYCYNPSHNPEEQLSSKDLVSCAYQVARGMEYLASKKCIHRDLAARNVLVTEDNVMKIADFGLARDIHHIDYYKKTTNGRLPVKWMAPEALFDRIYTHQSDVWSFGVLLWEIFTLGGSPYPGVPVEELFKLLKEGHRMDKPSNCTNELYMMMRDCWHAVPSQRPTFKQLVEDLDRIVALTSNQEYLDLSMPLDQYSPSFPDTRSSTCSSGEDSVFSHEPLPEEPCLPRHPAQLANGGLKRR
T9 sequence (P35968 20-1356, species assumed): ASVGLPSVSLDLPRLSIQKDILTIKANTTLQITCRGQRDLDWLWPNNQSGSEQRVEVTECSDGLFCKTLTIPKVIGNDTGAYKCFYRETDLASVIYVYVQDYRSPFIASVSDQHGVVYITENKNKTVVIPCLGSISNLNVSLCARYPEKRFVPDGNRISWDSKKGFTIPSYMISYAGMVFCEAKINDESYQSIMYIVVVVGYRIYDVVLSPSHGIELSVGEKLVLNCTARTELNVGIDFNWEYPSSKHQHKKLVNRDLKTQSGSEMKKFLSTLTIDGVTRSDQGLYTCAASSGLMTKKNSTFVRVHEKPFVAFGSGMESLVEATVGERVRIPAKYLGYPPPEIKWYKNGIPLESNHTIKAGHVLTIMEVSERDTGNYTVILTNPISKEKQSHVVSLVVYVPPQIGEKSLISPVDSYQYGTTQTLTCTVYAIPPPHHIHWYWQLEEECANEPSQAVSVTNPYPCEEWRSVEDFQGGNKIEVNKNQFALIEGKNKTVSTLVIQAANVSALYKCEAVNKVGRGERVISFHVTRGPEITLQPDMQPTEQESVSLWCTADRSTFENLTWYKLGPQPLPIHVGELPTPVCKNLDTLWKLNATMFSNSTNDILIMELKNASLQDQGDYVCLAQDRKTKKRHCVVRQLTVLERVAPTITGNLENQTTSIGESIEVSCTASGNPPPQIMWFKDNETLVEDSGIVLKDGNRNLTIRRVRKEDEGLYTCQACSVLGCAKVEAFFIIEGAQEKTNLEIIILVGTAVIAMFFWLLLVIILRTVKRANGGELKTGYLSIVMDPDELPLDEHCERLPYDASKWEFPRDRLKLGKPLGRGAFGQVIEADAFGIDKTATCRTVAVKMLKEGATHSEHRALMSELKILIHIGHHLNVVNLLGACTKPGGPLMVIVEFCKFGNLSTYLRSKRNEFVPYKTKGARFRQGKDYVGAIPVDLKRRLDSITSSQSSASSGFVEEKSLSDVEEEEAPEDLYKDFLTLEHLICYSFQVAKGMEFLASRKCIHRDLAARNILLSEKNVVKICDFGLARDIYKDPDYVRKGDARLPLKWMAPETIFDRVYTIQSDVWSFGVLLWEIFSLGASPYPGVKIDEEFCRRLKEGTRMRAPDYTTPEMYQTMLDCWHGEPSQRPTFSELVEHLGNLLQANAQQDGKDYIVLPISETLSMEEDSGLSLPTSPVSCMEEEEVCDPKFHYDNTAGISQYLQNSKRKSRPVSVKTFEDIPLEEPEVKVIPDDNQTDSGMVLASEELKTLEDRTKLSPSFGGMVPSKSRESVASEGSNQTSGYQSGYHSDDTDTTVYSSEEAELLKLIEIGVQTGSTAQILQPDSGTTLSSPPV
T15 sequence (P08631 whole entry, the tested form may be a part): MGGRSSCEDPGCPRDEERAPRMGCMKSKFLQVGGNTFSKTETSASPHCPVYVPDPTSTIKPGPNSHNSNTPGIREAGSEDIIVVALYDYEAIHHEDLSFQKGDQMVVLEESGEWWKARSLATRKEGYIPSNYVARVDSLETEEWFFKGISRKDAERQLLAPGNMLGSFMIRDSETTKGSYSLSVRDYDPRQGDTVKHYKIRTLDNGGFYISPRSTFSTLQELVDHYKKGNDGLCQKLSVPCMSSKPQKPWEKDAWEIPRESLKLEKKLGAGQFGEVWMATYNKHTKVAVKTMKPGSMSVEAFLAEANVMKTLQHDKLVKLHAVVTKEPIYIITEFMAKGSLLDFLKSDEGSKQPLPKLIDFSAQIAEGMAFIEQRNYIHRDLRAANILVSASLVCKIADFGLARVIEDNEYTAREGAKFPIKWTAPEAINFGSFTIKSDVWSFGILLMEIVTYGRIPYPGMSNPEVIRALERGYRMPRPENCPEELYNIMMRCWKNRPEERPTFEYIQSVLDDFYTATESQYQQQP

Row | Compound | IC50 (Lck) [µM] | IC50 (Lyn) [µM] | IC50 (Src) [µM] | IC50 (Fyn) [µM] | IC50 (Zap-70) [µM] | IC50 (Itk) [µM] | IC50 (EGFR) [µM] | IC50 (ErbB2) [µM] | IC50 (Kdr) [µM] | IC50 (Flt-1) [µM] | IC50 (c-Met) [µM] | IC50 (AKT) [µM] | IC50 (IGFR-1) [µM] | IC50 (PDGFRB [1]) [µM] | IC50 (Hck-1) [µM] | IC50 (ErbB4) [µM] | IC50 (Ret-1) [µM] | IC50 (FGFR1) [µM] | IC50 (PDGFRB [2]) [µM]
1 | CCN(CC)CCOc1ccc(Nc2ncnc(Nc3cc(OC)c(OC)c(OC)c3)n2)cc1OC [Compound 602] | 0.802 to 4.81 | 0.802 to 4.81 | 0.802 to 4.81 | 0.802 to 4.81 | > 9.03 | > 9.03 | 0.802 to 4.81 | 0.802 to 4.81 | 7.02 to 9.03 | > 9.03 | > 9.03 | > 9.03 | > 9.03 | 0.802 to 4.81 | > 9.03 | 0.802 to 4.81 | > 9.03 | > 9.03 | 
2 | CCOC(=O)C(Nc1nc2ccccc2n1-c1ncnc(Nc2cc(OC)c(OC)c(OC)c2)n1)c1ccccc1 (centres unmarked) [Compound 585] | 4.32 to 6.3 | > 8.1 | > 8.1 | > 8.1 | > 8.1 | > 8.1 | > 8.1 | 4.32 to 6.3 | < 0.72 | 0.72 to 4.32 | 6.3 to 8.1 | > 8.1 | > 8.1 |  |  | > 8.1 | < 0.72 | < 0.72 | 0.72 to 4.32
3 | COc1cc(Nc2ncnc(-n3c(NC(C)c4ccc(F)cc4)nc4ccccc43)n2)cc(OC)c1OC (centres unmarked) [Compound 605] | 0.776 to 4.66 | 0.776 to 4.66 | > 8.73 | > 8.73 | > 8.73 | > 8.73 | > 8.73 | > 8.73 | < 0.776 | 0.776 to 4.66 | > 8.73 | > 8.73 | > 8.73 | < 0.776 | > 8.73 | > 8.73 | < 0.776 | < 0.776 | 

Results, then the compound that gave them:

Row | IC50 (Lck) [µM] | IC50 (Lyn) [µM] | IC50 (Src) [µM] | IC50 (Fyn) [µM] | IC50 (Zap-70) [µM] | IC50 (Itk) [µM] | IC50 (EGFR) [µM] | IC50 (ErbB2) [µM] | IC50 (Kdr) [µM] | IC50 (Flt-1) [µM] | IC50 (c-Met) [µM] | IC50 (AKT) [µM] | IC50 (IGFR-1) [µM] | IC50 (PDGFRB [1]) [µM] | IC50 (Hck-1) [µM] | IC50 (ErbB4) [µM] | IC50 (Ret-1) [µM] | IC50 (FGFR1) [µM] | IC50 (PDGFRB [2]) [µM] | Compound
4 | < 0.958 | < 0.958 | 0.958 to 5.75 | 0.958 to 5.75 | > 10.8 | > 10.8 | < 0.958 | 0.958 to 5.75 | < 0.958 | 8.38 to 10.8 | > 10.8 | > 10.8 | > 10.8 | 0.958 to 5.75 | 0.958 to 5.75 | 0.958 to 5.75 | < 0.958 | 0.958 to 5.75 |  | COc1cc(Nc2ncnc(N(C)c3cccc4ccccc34)n2)cc(OC)c1OC [Compound 607]
5 | < 0.995 | 0.995 to 5.97 | 0.995 to 5.97 | 0.995 to 5.97 | > 11.2 | > 11.2 | < 0.995 | < 0.995 | < 0.995 | 0.995 to 5.97 | 0.995 to 5.97 | > 11.2 | 0.995 to 5.97 | 0.995 to 5.97 | 8.71 to 11.2 | 8.71 to 11.2 | < 0.995 | 0.995 to 5.97 |  | COc1cc(Nc2ncnc(N(C)c3cccc(Cl)c3)n2)cc(OC)c1OC [Compound 603]
